These results are taken from patent US10913771B2, “Peptide for preventing or treating inflammatory diseases and use thereof” (KINE SCIENCES Co., Ltd., priority 2016, dated 2021).

In series [1] the test system is collagen-induced arthritis (CIA) mouse model. The experiment in a line: Arthritis progression index in collagen-induced arthritis mouse model. The class given is in vivo, DBA/1J mouse. As to the method:
In Example 2, using a collagen-induced arthritis mouse model in the following document, a therapeutic effect of a PSP dimer or trimer for a representative inflammatory disease, rheumatoid arthritis was confirmed (Nat Protoc. 2007; 2(5):1269-75.).
A collagen-induced arthritis (CIA) mouse model was prepared as follows, as an autoimmune disease-based arthritis model with characteristics similar to human rheumatoid arthritis.
First, a bovine type II collagen (Chondrex Corporation, USA) and a Freund's complete adjuvant (Chondrex Corporation, USA) were mixed at a ratio of 1:1 and emulsified, and then 50 μl of the emulsified collagen solution was injected intradermally into the tail of a 6-week-old DBA/1J mouse to induce primary immunization. At two weeks after the primary immunization, the bovine type II collagen and the Freund's complete adjuvant were mixed at a ratio of 1:1 and emulsified, and then 50 μl of the emulsified collagen solution was injected intradermally into the tail of the mouse again to induce secondary immunization (boosting). After the secondary immunization, the peptide of the present invention (the PSP dimer (1 μmole) or the PSP trimer (1 μmole)) was administered intraperitoneally three times a week from the next day, and as a comparative experimental group, a PSP monomer-treated group and as a control (Vehicle control), a PBS-treated group were used, respectively. The preparation process of the collagen-induced arthritis mouse model and the administration time of the peptide were schematically illustrated in FIG. 1.
In order to investigate the development of arthritis progression according to the peptide treatment of the present invention, the deepening degree of arthritis with time was measured by evaluating an arthritis progression index. Two observers who were unaware of the specific experimental conditions evaluated progression of arthritis three times a week. In this case, the arthritis progression index was evaluated by 0 to 4 scores per leg according to an arthritis progression evaluation standard by Rossoliniec and the like in Table 2 below to be represented by a total of 0 to 16 scores (a sum of four legs), and thereafter, two observers calculated an average value of the evaluated results to digitize the severity of arthritis.
Methotrexate (MTX), one of drugs which are used as arthritis therapeutic agents in a current clinical practice, had excellent anti-inflammatory and arthritis therapeutic effects as an immunodepressant, but may have side effects such as toxicity to normal cells, oral ulcer, alopecia, interstitial pneumonia, bone marrow suppression, and the like. As a result, the methotrexate is known as a drug that needs to pay close attention after medication with sufficient medication counseling. In Example 2, the arthritis therapeutic effect with the peptide of the present invention and methotrexate (1 mg/kg) was evaluated and compared with the arthritic progression index by using the same method as Example 2-2.

Series [2] is described as follows: Evaluation of toxicity: mortality and change in body weight after intraperitoneal administration. The class given is in vivo. The settings on record: individual mouse. As to the method: In Example 3, in order to confirm the toxicity of the peptide of the present invention, the PSP dimer or the PSP trimer was intraperitoneally administered to mouse at various concentrations (0.1 μmole, 1 μmole, and 10 μmole), and then the mortality and a change in body weight of each mouse were measured. On the other hand, as a control, a non-administration group (Normal) and a PBS-treated group (PBS) were used.

Values joined by “and” are separate entries in the source; they are usually repeats but may differ in a detail not shown here. Equal values may be shown once. Ends that are not written are not given here.

Take `CN(Cc1cnc2nc(N)nc(N)c2n1)c1ccc(C(=O)N[C@@H](CCC(=O)O)C(=O)O)cc1` [MTX, methotrexate]: the arthritis progression index is on record as 0.0 in series [1] (Table 6, day 14, comparison of PSP dimer with methotrexate (1 mg/kg), 0 to 16 scores); 0.0 in series [1] (Table 6, day 17, comparison with methotrexate (1 mg/kg)); 0.0 in series [1] (Table 6, day 20, comparison with methotrexate (1 mg/kg)); 0.0 in series [1] (Table 6, day 22, comparison with methotrexate (1 mg/kg)); 0.0 in series [1] (Table 6, day 25, comparison with methotrexate (1 mg/kg)); 1.0 in series [1] (Table 6, day 27, comparison with methotrexate (1 mg/kg)). The arthritis progression index worked out at 0.8 in series [1] (Table 6, day 29, comparison with methotrexate (1 mg/kg)); 2.8 in series [1] (Table 6, day 31, comparison with methotrexate (1 mg/kg)); 3.2 in series [1] (Table 6, day 35, comparison with methotrexate (1 mg/kg)); 0.0 in series [1] (Table 7, day 14, comparison of PSP trimer with methotrexate (1 mg/kg), 0 to 16 scores); 0.0 in series [1] (Table 7, day 17, comparison with methotrexate (1 mg/kg)); 0.0 in series [1] (Table 7, day 20, comparison with methotrexate (1 mg/kg)). In addition, the arthritis progression index was 0.0 in series [1] (Table 7, day 22, comparison with methotrexate (1 mg/kg)); 0.0 in series [1] (Table 7, day 25, comparison with methotrexate (1 mg/kg)); 1.0 in series [1] (Table 7, day 27, comparison with methotrexate (1 mg/kg)); 0.8 in series [1] (Table 7, day 29, comparison with methotrexate (1 mg/kg)); 2.8 in series [1] (Table 7, day 31, comparison with methotrexate (1 mg/kg)); 3.2 in series [1] (Table 7, day 35, comparison with methotrexate (1 mg/kg)).
Take PSPPSP [PSP dimer, PSPPSP]: the Body weight in series [2] (PSP dimer 0.1 μmol intraperitoneal, day 15) was 20.7 g and 20.2 g and 21.6 g and 21 g and 20.1 g and 20.9 g and 19.9 g; in series [2] (PSP dimer 0.1 μmol intraperitoneal, day 18) it was 20.7 g and 21.1 g (2×) and 22.7 g and 22.4 g and 21.2 g and 21.8 g; in series [2] (PSP dimer 0.1 μmol intraperitoneal, day 22) it was 23.3 g and 21.9 g and 23.5 g and 22.9 g and 21.4 g and 23.1 g and 22.3 g; in series [2] (PSP dimer 0.1 μmol intraperitoneal, day 25), 22.7 g and 21.4 g and 22.1 g and 23 g and 21.1 g and 22.5 g and 21.7 g; in series [2] (PSP dimer 0.1 μmol intraperitoneal, day 29), 23.2 g (2×) and 21.7 g (2×) and 22.7 g and 23.3 g and 19.5 g; in series [2] (PSP dimer 0.1 μmol intraperitoneal, day 32), 23.5 g and 22.1 g and 23.3 g and 22.7 g and 19.3 g and 23.9 g and 21 g. In addition, the Body weight was 23.7 g and 18.6 g (2×) and 22.4 g and 22.3 g and 24.2 g and 20.2 g in series [2] (PSP dimer 0.1 μmol intraperitoneal, day 36); 23.3 g and 20 g and 22.5 g and 22.1 g and 20.8 g and 21.8 g and 21.1 g in series [2] (PSP dimer 1 μmol intraperitoneal, day 18); 24.4 g and 20.7 g and 22.5 g (3×) and 23.2 g and 21.5 g in series [2] (PSP dimer 1 μmol intraperitoneal, day 22); 23.9 g and 19.6 g and 21.8 g and 22.9 g and 21.6 g and 22.3 g and 22.4 g in series [2] (PSP dimer 1 μmol intraperitoneal, day 25); 23.9 g and 20.1 g and 21.8 g and 23.4 g and 21.3 g and 22.7 g and 23.1 g in series [2] (PSP dimer 1 μmol intraperitoneal, day 29); 23 g (2×) and 20.7 g and 23.4 g and 21.4 g and 19.4 g and 24.5 g in series [2] (PSP dimer 1 μmol intraperitoneal, day 36). The Body weight in series [2] (PSP dimer 10 μmol intraperitoneal, day 15) came out at 19.5 g; in series [2] (PSP dimer 10 μmol intraperitoneal, day 18) it was 20.8 g.
Take PSPPSPPSP [PSP trimer, PSPPSPPSP]: the Body weight in series [2] (PSP trimer 0.1 μmol intraperitoneal, day 15) is 20.75 g (2×) and 20.64 g and 21.54 g and 19.43 g and 22.27 g and 21.68 g; in series [2] (PSP trimer 0.1 μmol intraperitoneal, day 17), 21 g and 20.6 g and 21.5 g and 19.1 g and 22.3 g and 21.3 g and 21.7 g; in series [2] (PSP trimer 0.1 μmol intraperitoneal, day 20), 21.2 g and 21.3 g and 20.8 g and 19.6 g and 22.9 g and 21.9 g and 21.7 g; in series [2] (PSP trimer 0.1 μmol intraperitoneal, day 24) it was 22.2 g and 21.7 g and 22.6 g and 19.9 g and 23.8 g and 22.8 g and 21.9 g; in series [2] (PSP trimer 0.1 μmol intraperitoneal, day 27) it was 21.3 g and 21.4 g and 22.7 g and 19.5 g and 23.6 g and 22.2 g and 21.8 g; in series [2] (PSP trimer 0.1 μmol intraperitoneal, day 31), 20.3 g and 21.3 g and 21 g (2×) and 18.6 g and 24.3 g and 23.3 g. Also, the Body weight in series [2] (PSP trimer 0.1 μmol intraperitoneal, day 34) was 19.7 g and 20.5 g and 19.8 g and 18.1 g and 24.1 g and 23 g and 21.3 g; in series [2] (PSP trimer 1 μmol intraperitoneal, day 15), 20.76 g and 21.15 g (2×) and 21.62 g and 21.02 g and 20.4 g and 19.02 g; in series [2] (PSP trimer 1 μmol intraperitoneal, day 17) it was 21.5 g (2×) and 21.1 g and 22.2 g and 21.7 g and 21.3 g and 19.1 g; in series [2] (PSP trimer 1 μmol intraperitoneal, day 20) it was 22.3 g and 21.6 g and 22.9 g and 22.1 g and 21.8 g and 20.8 g and 19.2 g; in series [2] (PSP trimer 1 μmol intraperitoneal, day 24) it was 23.2 g and 22.6 g and 23.8 g and 22.7 g (2×) and 21.3 g and 20.2 g; in series [2] (PSP trimer 1 μmol intraperitoneal, day 27), 22.3 g and 22.4 g and 23.8 g and 22.8 g and 22.6 g and 21.5 g and 19.8 g. The Body weight in series [2] (PSP trimer 1 μmol intraperitoneal, day 31) is 21.4 g (2×) and 22.7 g and 22.8 g and 22.5 g and 21.7 g and 19.9 g; in series [2] (PSP trimer 1 μmol intraperitoneal, day 34), 20.1 g and 22.6 g and 21.1 g and 19.9 g and 20.7 g and 22 g and 19.3 g; in series [2] (PSP trimer 10 μmol intraperitoneal, day 15), 21.9 g; in series [2] (PSP trimer 10 μmol intraperitoneal, day 17), 21.2 g.
